From patent publication US8859574B2 (IRM LLC, priority 2008, dated 2014) come the findings set out here.

For this assay, the target named is T1, IGF-1R Ba/F3 (Homo sapiens, UniProt P08069).
T1 construct: fused on or other part: TEL- (or BCR-) IGF-1R in Ba/F3: the kinase part holds the site
T1 sequence (P08069 999-1274 limits assumed): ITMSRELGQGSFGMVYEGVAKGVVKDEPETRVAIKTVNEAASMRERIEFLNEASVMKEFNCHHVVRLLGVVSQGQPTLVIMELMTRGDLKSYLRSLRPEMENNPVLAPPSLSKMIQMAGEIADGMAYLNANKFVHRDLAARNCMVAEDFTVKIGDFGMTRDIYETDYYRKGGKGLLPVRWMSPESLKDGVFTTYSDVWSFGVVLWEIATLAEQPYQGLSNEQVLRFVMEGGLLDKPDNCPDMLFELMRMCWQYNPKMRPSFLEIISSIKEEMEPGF
Put plainly: Ba/F3 Cell Viability Inhibition Assay (IGF-1R Ba/F3). The note with it: Tel-TK transformed Ba/F3 cells, 48 hours, Britelite luminescence. Format: cell-based, murine. The method, boiled down:
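IL-3-independent murine Ba/F3 cells transformed with a TEL/BCR-fused IGF-1R kinase were seeded at 3750 cells/well and exposed to serially diluted compound for 48 h at 37 °C. Viability was read by Britelite luminescence. IC50 is the concentration giving 50% of DMSO-control viability, from a logistic fit.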
Compound `Cc1cc(Nc2nc(Nc3cc(C)c(C4CCOC(=O)C4)cc3C)ncc2Cl)n[nH]1` (stereo not drawn) [Compound 152, 4-(4-(5-chloro-4-(5-methyl-1H-pyrazol-3-ylamino)pyrimidin-2-ylamino)-2,5-dimethylphenyl)tetrahydro-2H-pyran-2-one] returned a half-maximal inhibitory concentration (IC50) of 155 nM.

`Cc1cc(Nc2nc(Nc3cc(C)c(C4CCN(C(=O)[C@@H]5COCCN5)CC4)cc3F)ncc2Cl)n[nH]1` [Compound 143, (S)-(4-(4-(5-chloro-4-(5-methyl-1H-pyrazol-3-ylamino)pyrimidin-2-ylamino)-5-fluoro-2-methylphenyl)piperidin-1-yl)(morpholin-3-yl)methanone] registered an IC50 of 71 nM.

In turn, `Cc1cc(Nc2nc(Nc3cc(C)c(C4CCCCN4)cc3C)ncc2Cl)n[nH]1` (stereo not drawn) [Compound 14, 5-chloro-N2-(2,5-dimethyl-4-(piperidin-2-yl)phenyl)-N4-(5-methyl-1H-pyrazol-3-yl)pyrimidine-2,4-diamine] showed an IC50 of 16 nM.

As to `Cc1cc(Nc2nc(Nc3cc(C)c(C4CCN(C(=O)[C@@H]5COCCN5C(C)C)CC4)cc3F)ncc2Cl)n[nH]1` [Compound 126, (S)-(4-(4-(5-chloro-4-(5-methyl-1H-pyrazol-3-ylamino)pyrimidin-2-ylamino)-5-fluoro-2-methylphenyl)piperidin-1-yl)(4-isopropylmorpholin-3-yl)methanone], the IC50 is 29 nM.

`Cc1cc(Nc2nc(Nc3cc(C)c(C4CCN(Cc5cncnc5)CC4)cc3C)ncc2Cl)n[nH]1` [Compound 317, 5-chloro-N2-(2,5-dimethyl-4-(1-(pyrimidin-5-ylmethyl)piperidin-4-yl)phenyl)-N4-(5-methyl-1H-pyrazol-3-yl)pyrimidine-2,4-diamine] yielded a half-maximal inhibitory concentration (IC50) of 4 nM.

Compound `Cc1cc(Nc2nc(Nc3cc(C)c(C4CCN(C5CCC5)CC4)cc3F)ncc2Cl)n[nH]1` [Compound 272, 5-chloro-N2-(4-(1-cyclobutylpiperidin-4-yl)-2-fluoro-5-methylphenyl)-N4-(5-methyl-1H-pyrazol-3-yl)pyrimidine-2,4-diamine] displayed a 50% inhibitory concentration (IC50) of 50 nM.

Compound `CCN1CCC(c2cc(F)c(Nc3ncc(Cl)c(Nc4cc(C)[nH]n4)n3)cc2C(F)(F)F)CC1` [Compound 240, 5-chloro-N2-(4-(1-ethylpiperidin-4-yl)-2-fluoro-5-(trifluoromethyl)phenyl)-N4-(5-methyl-1H-pyrazol-3-yl)pyrimidine-2,4-diamine] gave a 50% inhibitory concentration (IC50) of 102 nM.

With `Cc1cc(Nc2ncc(Cl)c(Nc3cc(C4CC4)[nH]n3)n2)c(F)cc1C1CCN(C2CC2)CC1` [Compound 255, 5-chloro-N4-(5-cyclopropyl-1H-pyrazol-3-yl)-N2-(4-(1-cyclopropylpiperidin-4-yl)-2-fluoro-5-methylphenyl)pyrimidine-2,4-diamine], it took 228 nM to reach half-maximal inhibition (IC50).

`Cc1noc(CN2CCC(c3cc(C)c(Nc4ncc(Cl)c(Nc5cc(C)[nH]n5)n4)cc3C)CC2)n1` [Compound 302, 5-chloro-N2-(2,5-dimethyl-4-(1-((3-methyl-1,2,4-oxadiazol-5-yl)methyl)piperidin-4-yl)phenyl)-N4-(5-methyl-1H-pyrazol-3-yl)pyrimidine-2,4-diamine] showed a half-maximal inhibitory concentration (IC50) of 6 nM.

On to `CCOC(=O)N1CCC(c2cc(C)c(Nc3ncc(Cl)c(Nc4cc(C)[nH]n4)n3)cc2C)CC1` [Compound 162, ethyl 4-(4-(5-chloro-4-(5-methyl-1H-pyrazol-3-ylamino)pyrimidin-2-ylamino)-2,5-dimethylphenyl)piperidine-1-carboxylate], for which half-maximal inhibition (IC50) was put at 13 nM.

As to `Cc1cc(Nc2nc(Nc3cc(C)c(C4CCN(C5CCN(S(C)(=O)=O)CC5)CC4)cc3F)ncc2Cl)n[nH]1` [Compound 278, 5-chloro-N2-(2-fluoro-5-methyl-4-(1′-(methylsulfonyl)-1,4′-bipiperidin-4-yl)phenyl)-N4-(5-methyl-1H-pyrazol-3-yl)pyrimidine-2,4-diamine], the IC50 came out at 9 nM.

Consider `Cc1cc(Nc2nc(Nc3cc(C)c(C4CCN(C5CCNC5)CC4)cc3F)ncc2Cl)n[nH]1` (stereo not drawn) [Compound 299, 5-chloro-N2-(2-fluoro-5-methyl-4-(1-(pyrrolidin-3-yl)piperidin-4-yl)phenyl)-N4-(5-methyl-1H-pyrazol-3-yl)pyrimidine-2,4-diamine], for which 101 nM corresponded to half-maximal inhibition (IC50).
